Assay results as given in patent US5506262A, “Cholesterol lowering compounds” (Merck & Co., Inc., priority 1993, dated 1996).
Converted amounts (≈) assume the structure as drawn.

What was measured:
[1] = biological target: T1, Farnesyl-protein transferase (Ftase) (Bos taurus, UniProt P29702+P49355); experiment: RASIT ASSAY I: inhibition of Ras farnesylation in vitro; format: biochemical, bovine; settings: Ras-CVLS 3.5 μM, 0.25 μM [3H]FPP
T1 construct: Farnesyl-protein transferase (Ftase) from bovine brain was chromatographed on DEAE-Sephacel; from tissue; host or cells: bovine brain, partially purified (DEAE-Sephacel, N-octyl agarose, mono Q)
Description: (§1) The intrinsic farnesyl-protein transferase (FTase) activity of representative compounds of this invention was measured by the assays described below:
(§2) Farnesyl-protein transferase (Ftase) from bovine brain was chromatographed on DEAE-Sephacel (Pharmacia, 0-0.8M NaCl gradient elution), N-octyl agarose (Sigma, 0-0.6M Nacl gradient elution), and a mono Q HPLC column (Pharmacia, 0-0.3M NaCl gradient). Ras-CVLS at 3.5 μM, 0.25 μM [^3 H]FPP, and the indicated compounds were incubated with this partially purified enzyme preparation. The Ftase data presented below is a measurement of the ability of the test compound to inhibit Ras farnesylation in vitro.
(§3) Table 8 lists IC50 data which is representative of the intrinsic Ras inhibitory activity of the compounds of this invention. Data of representative compounds from each embodiment and class of the invention is provided. When an inhibitory value is not provided for a given assay, the compound was not tested in that protocol.

[2] = system: Aspergillus flavus MF383; experiment: Antifungal MIC, microtiter dilution assay; format: cell-based; settings: 42 hours, 28° C., read-out: Minimum Inhibitory Concentration
Description: (§4) The compounds are particularly active towards filamentous fungi and yeasts including Candida albicans and Cryptococcus neoformans. The sensitivity of filamentous fungi and yeast was determined using inhibitor dilution assays in microtiter format. The compounds were dissolved in DMSO at 2 mg/ml and serially diluted in 0.1M phosphate buffer, pH 7.0 in the microtiter dish from 100 to 0.006 μg/ml. A standardized spore suspension for testing the filamentous fungi was prepared by inoculating Antibiotic Medium #3 containing 1.5% agar with spores such that 1.5×10^3 colony forming units were added per well. The microtiter wells were filled with 50 μl of buffer containing compound and 50 μl of inoculated medium.
(§5) The sensitivity of yeasts was determined by inoculating yeast nitrogen base containing 1% dextrose (YNB/G) with aliquots of an overnight yeast culture grown in Yeast Morphology (YM) media at 35° C. and diluting in YNB/G to yield a final concentration of 1.5-7.5×10^3 colony forming units/well. To test the sensitivity of yeast, compound was solubilized in 10 percent aqueous DMSO at 2.56 mg/ml. The compound was diluted serially in YNB/G from 128 to 0.06 μg/ml and further diluted 1:10 in YNB/G. The wells were filled with 150 μl of media containing drug. […] Representative of the antifungal activity are the minimum inhibitory concentration data shown below for representative compounds from the various embodiments and classes described hereinabove.

[3] = system: Candida albicans MY1055; experiment: Antifungal MIC, microtiter dilution assay; format: cell-based; settings: 24 to 48 hours, 35° C., read-out: Minimum Inhibitory Concentration
Description: as §4, §5

[4] = system: C. tropicalis MY1012; experiment: Antifungal MIC, microtiter dilution assay; format: cell-based; settings: Candida tropicalis, 24 to 48 hours, 35° C., read-out: Minimum Inhibitory Concentration
Description: as §4, §5

[5] = system: C. parapsilosis MY1010; experiment: Antifungal MIC, microtiter dilution assay; format: cell-based; settings: Lodderomyces parapsilosis, 24 to 48 hours, 35° C., read-out: Minimum Inhibitory Concentration
Description: as §4, §5

[6] = system: Crypt. neoformans MY1051; experiment: Antifungal MIC, microtiter dilution assay; format: cell-based; settings: Cryptococcus neoformans, 24 to 48 hours, 35° C., read-out: Minimum Inhibitory Concentration
Description: as §4, §5

[7] = biological target: T1, Farnesyl-protein transferase (Ftase); experiment: RASIT ASSAY II: inhibition of Ras farnesylation in vitro; format: biochemical, bovine; settings: Ras-CVLS 1.0 μM, 0.5 μM [3H]FPP
Description: as §1
as §2, with “1.0” for “3.5”, “0.5” for “0.25”
as §3

## C=C(CC[C@]12O[C@H](C(=O)O)[C@@](O)(C(=O)O)[C@](C(=O)O)(O1)[C@H](OC(=O)/C=C/[C@@H](C)C[C@@H](C)CC)[C@H]2OC)[C@@H](OC(C)=O)[C@H](C)Cc1ccccc1 [5n']
[1]
  IC50: 4000 nM
[2]
  MIC: 4 µg/mL (≈ 5.68 µM)
[3]
  MIC: 4 µg/mL (≈ 5.68 µM)
[4]
  MIC: 1 µg/mL (≈ 1.42 µM)
[5]
  MIC: 16 µg/mL (≈ 22.7 µM)
[6]
  MIC: 1 µg/mL (≈ 1.42 µM)

## C=C(CC[C@]12O[C@H](C(=O)O)[C@@](O)(C(=O)O)[C@](C(=O)O)(O1)[C@H](OCCCCCCCCCCOc1ccc(OC)c(OC)c1)[C@H]2O)[C@@H](OC(C)=O)[C@H](C)Cc1ccccc1 [5q"']
[2]
  MIC: 1 µg/mL (≈ 1.2 µM)
[3]
  MIC: 8 µg/mL (≈ 9.63 µM)
[4]
  MIC: 128 µg/mL (≈ 154 µM)
[5]
  MIC: 1 µg/mL (≈ 1.2 µM)
[6]
  MIC: 0.25 µg/mL (≈ 0.301 µM)

## C=C(CC[C@]12O[C@H](C(=O)O)[C@@](O)(C(=O)O)[C@](C(=O)O)(O1)[C@H](OC(=O)NCc1ccccc1)[C@H]2O)[C@@H](OC(C)=O)[C@H](C)Cc1ccccc1 [Compound 5s]
[3]
  MIC: 1 µg/mL (≈ 1.49 µM)
[4]
  MIC: > 128 µg/mL
[5]
  MIC: > 128 µg/mL
[6]
  MIC: 32 µg/mL (≈ 47.6 µM)

## C=C(CC[C@]12O[C@H](C(=O)O)[C@@](O)(C(=O)O)[C@](C(=O)O)(O1)[C@H](OC(=O)Nc1ccc(-c3ccccc3)cc1)[C@H]2O)[C@@H](OC(C)=O)[C@H](C)Cc1ccccc1 [Compound 5t]
[2]
  MIC: 0.5 µg/mL (≈ 0.681 µM)
[3]
  MIC: 8 µg/mL (≈ 10.9 µM)
[4]
  MIC: 0.5 µg/mL (≈ 0.681 µM)
[5]
  MIC: > 128 µg/mL
[6]
  MIC: > 128 µg/mL

## C=C(CC[C@]12O[C@H](C(=O)O)[C@@](O)(C(=O)O)[C@](C(=O)O)(O1)[C@H](OC(=O)NCCCCCCCCCCCOc1ccccc1)[C@H]2O)[C@@H](OC(C)=O)[C@H](C)Cc1ccccc1 [Compound 5u]
[1]
  IC50: 500 nM
[7]
  IC50: 27 nM

## C=C(CC[C@]12O[C@H](C(=O)O)[C@@](O)(C(=O)O)[C@](C(=O)O)(O1)[C@H](OC(=O)OCCCCCCCCCCCOc1ccccc1)[C@H]2O)[C@@H](OC(C)=O)[C@H](C)Cc1ccccc1 [Compound 5y]
[1]
  IC50: 500 nM
[7]
  IC50: 27 nM

## C=C(CC[C@]12O[C@H](C(=O)O)[C@@](O)(C(=O)O)[C@](C(=O)O)(O1)[C@H](OC(=O)/C=C/[C@@H](C)C[C@@H](C)CC)[C@H]2O)[C@@H](OC(=O)CCC)[C@H](C)Cc1ccccc1 [Compound 7b, IA-Cl(4')-Butanoyl tri-acid]
[2]
  MIC: 2 µg/mL (≈ 2.78 µM)
[3]
  MIC: 2 µg/mL (≈ 2.78 µM)
[4]
  MIC: 2 µg/mL (≈ 2.78 µM)
[5]
  MIC: 2 µg/mL (≈ 2.78 µM)
[6]
  MIC: 0.5 µg/mL (≈ 0.696 µM)

## C=C(CC[C@]12O[C@H](C(=O)O)[C@@](O)(C(=O)O)[C@](C(=O)O)(O1)[C@H](OC(=O)/C=C/[C@@H](C)C[C@@H](C)CC)[C@H]2O)[C@@H](OC(=O)c1ccccc1)[C@H](C)Cc1ccccc1 [Compound 7d]
[1]
  IC50: 1700 nM
[7]
  IC50: 52 nM

## C=C(CC[C@]12O[C@H](C(N)=O)[C@@](O)(C(=O)O)[C@](C(=O)O)(O1)[C@H](OC(=O)/C=C/[C@@H](C)C[C@@H](C)CC)[C@H]2O)[C@@H](OC(C)=O)[C@H](C)Cc1ccccc1 [Compound 12a, IA-3-carboxamide]
[2]
  MIC: 2 µg/mL (≈ 2.9 µM)
[3]
  MIC: 8 µg/mL (≈ 11.6 µM)
[4]
  MIC: 2 µg/mL (≈ 2.9 µM)
[5]
  MIC: 8 µg/mL (≈ 11.6 µM)
[6]
  MIC: 1 µg/mL (≈ 1.45 µM)

## C=C(CC[C@]12O[C@H](C(=O)Nc3ccncn3)[C@@](O)(C(=O)O)[C@](C(=O)O)(O1)[C@H](OC(=O)/C=C/[C@@H](C)C[C@@H](C)CC)[C@H]2O)[C@@H](OC(C)=O)[C@H](C)Cc1ccccc1 [Compound 12n, IA-3-(4-amidopyrimidine)]
[2]
  MIC: 2 µg/mL (≈ 2.6 µM)
[3]
  MIC: 16 µg/mL (≈ 20.8 µM)
[4]
  MIC: 8 µg/mL (≈ 10.4 µM)
[5]
  MIC: 32 µg/mL (≈ 41.7 µM)
[6]
  MIC: 0.25 µg/mL (≈ 0.326 µM)

## CC[C@H](C)C[C@H](C)CCC(=O)O[C@@H]1[C@@H](O)[C@@]2(CCC(C)[C@@H](OC(C)=O)[C@H](C)Cc3ccccc3)O[C@H](C(=O)O)[C@@](O)(C(=O)O)[C@]1(C(=O)O)O2 (stereo partly drawn) [Compound 24b, (1S,3S,4S,5R,6R,7R)-1-[(4S)-acetoxy-3,5(R)-dimethyl-6-phenyl]hexyl-4,6,7-trihydroxy-6-O-(4(S),6(S)-dimethyl-2-octanoyl)-2,8-dioxabicyclo-[3,2,1]octane-3,4,5-tricarboxylic acid]
[1]
  IC50: 1300 nM

## CC[C@H](C)C[C@H](C)CCC(=O)O[C@@H]1[C@@H](O)[C@@]2(CCC(C)C[C@H](C)Cc3ccccc3)O[C@H](C(=O)O)[C@@](O)(C(=O)O)[C@]1(C(=O)O)O2 (stereo partly drawn) [Compound 25b, (1S,3S,4S, 5R,6R,7R)-1-[3,5(R)-dimethyl-6-phenyl]hexyl-4,6,7trihydroxy-6-O-(4(S),6(S)-dimethyl-2-octanoyl)-2,8-dioxabicyclo[3.2.1]octane-3,4,5-tricarboxylic acid]
[2]
  MIC: 4 µg/mL (≈ 6.28 µM)
[3]
  MIC: 8 µg/mL (≈ 12.6 µM)
[4]
  MIC: 8 µg/mL (≈ 12.6 µM)
[5]
  MIC: > 128 µg/mL
[6]
  MIC: 2 µg/mL (≈ 3.14 µM)

## CC[C@H](C)C[C@H](C)/C=C/C(=O)O[C@@H]1[C@@H](O)[C@@]2(CCCOC(=O)CCCc3ccccc3)O[C@H](C(=O)O)[C@@](O)(C(=O)O)[C@]1(C(=O)O)O2 [Compound 39e, 39-4-phenylbutyrate ester]
[1]
  IC50: 120 nM
[7]
  IC50: 19 nM
